From PMC8921294, “Inhibition of mitochondrial LonP1 protease by allosteric blockade of ATP binding and hydrolysis via CDDO and its derivatives” (The Journal of Biological Chemistry, 2022) come the findings set out here.

Changes are numbered by the printed parent chain.

By IC50 is commonly meant the concentration at which inhibition is half-maximal.

For experiment [1], the target named is T1, LonP1 C637V (Homo sapiens, UniProt P36776, C637V).
T1 construct: hexa-histidine (N); made in house; host or cells: Rosetta 2 E. coli
T1 sequence (P36776 68-959 C637V): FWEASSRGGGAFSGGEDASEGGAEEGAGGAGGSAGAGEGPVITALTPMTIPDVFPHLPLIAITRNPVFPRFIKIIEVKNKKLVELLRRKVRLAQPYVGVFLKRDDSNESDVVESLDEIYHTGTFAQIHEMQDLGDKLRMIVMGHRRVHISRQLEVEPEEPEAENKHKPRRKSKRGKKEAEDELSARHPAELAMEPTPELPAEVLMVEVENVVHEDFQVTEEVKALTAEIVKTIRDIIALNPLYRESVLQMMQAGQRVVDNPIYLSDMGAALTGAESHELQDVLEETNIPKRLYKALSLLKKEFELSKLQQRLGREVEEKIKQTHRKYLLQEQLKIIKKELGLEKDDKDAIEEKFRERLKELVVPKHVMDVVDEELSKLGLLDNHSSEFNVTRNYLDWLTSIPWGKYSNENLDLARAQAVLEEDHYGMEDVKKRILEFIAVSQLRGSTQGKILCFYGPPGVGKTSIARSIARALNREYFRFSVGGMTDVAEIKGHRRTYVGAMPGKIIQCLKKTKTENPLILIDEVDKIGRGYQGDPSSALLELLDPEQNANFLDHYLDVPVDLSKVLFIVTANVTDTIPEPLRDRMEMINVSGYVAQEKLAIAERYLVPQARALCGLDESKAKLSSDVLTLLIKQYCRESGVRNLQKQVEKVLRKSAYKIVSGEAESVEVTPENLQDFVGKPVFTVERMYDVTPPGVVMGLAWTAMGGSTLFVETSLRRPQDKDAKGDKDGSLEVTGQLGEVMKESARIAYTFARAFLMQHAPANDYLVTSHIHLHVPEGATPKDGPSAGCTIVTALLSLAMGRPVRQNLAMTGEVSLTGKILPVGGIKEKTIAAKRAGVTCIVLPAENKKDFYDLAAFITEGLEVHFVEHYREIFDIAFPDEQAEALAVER
The experiment is described as follows: Endpoint ATPase assay, LonP1 C637V. In kind it is biochemical. The procedure:
(§1) Human mitochondrial LonP1 and mutants lacking the predicted mitochondrial targeting sequence were fused to an N-terminal hexa-histidine affinity tag, expressed in Rosetta 2 E. Coli, and purified using a nickel agarose column as previously described ([72]) and protein concentration and buffer exchange carried out using Amicon Ultra centrifugal filtration. LonP1 mutant constructs were obtained from the PCR-based QuikChange Site-Directed Mutagenesis Kit.
(§2) ADP-Glo (Promega) assays were performed according to the manufacturer's protocols. Purified wild-type or mutant LonP1 (400 nM monomer), the 26S proteasome (3 nM), or no enzyme controls were preincubated in 96-well plates (60 min, 25 °C) with ten different concentrations of CDDO and its derivatives, TP-82, enoxolone (5 μM) or DMSO vehicle control in buffer (40 mM Tris-HCl (pH 7.5), 20 mM MgCl2, 0.1 mg/ml BSA and 5% DMSO). The 26S and 20S proteasome were also assayed at 0, 0.75, 1.5, 3, 6, and 12 nM in the absence of CDDO derivatives. […] Assay reagents were used to quench further ATPase activity and generate luminescence signals proportional to the concentration of ADP formed. Background (no enzyme control) luminescence values were subtracted, and resultant values were reported as a percentage of the no drug control (100%). […]

In experiment [2] the target is T2, LonP1 F547A/C576V (Homo sapiens, UniProt P36776, C576V/F547A).
T2 construct: hexa-histidine (N); made in house; host or cells: Rosetta 2 E. coli
T2 sequence (P36776 68-959 F547A/C576V): T1 sequence (P36776 68-959 C637V) with F480A, C509V, V570C
As to the kind of experiment: Endpoint ATPase assay, LonP1 F547A/C576V. It is filed as biochemical. As for the experimental part: as §1, §2

On to `CC1(C)CC[C@]2(C(=O)O)CC[C@]3(C)[C@H](C(=O)C=C4[C@@]5(C)C=C(C#N)C(=O)C(C)(C)[C@@H]5CC[C@]43C)[C@@H]2C1` [CDDO, 2-cyano-3,12-dioxooleana-1,9(11)-dien-28-oic acid], for which the “Fold increase in inhibition compared with WT” value is recorded as 3.8 in experiment [1] and 7.8 in experiment [2]. Moreover, the 50% inhibitory concentration (IC50) in experiment [1] (end-point ATPase assay, N = 1, read-out: CDDO IC50) came to 3.7 µM; in experiment [2] (end-point ATPase assay, read-out: CDDO IC50), 1.8 ± 0.8 µM.
